In PubChem BioAssay (NCI):
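Method: 48-hour compound exposure of cells in 96-well plates, five concentrations, linear interpolation of endpoints. TGI: total growth inhibition.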

Legend:
Test in all cases: NCI anticancer screen, dose series, 48 h
786-0 renal = tested on: 786-0 renal
CAKI-1 renal = tested on: CAKI-1 renal
EKVX NSCLC = tested on: EKVX NSCLC
HCT-116 colon = tested on: HCT-116 colon
HCT-15 colon = tested on: HCT-15 colon
HL-60(TB) leukemia = tested on: HL-60(TB) leukemia
HOP-62 NSCLC = tested on: HOP-62 NSCLC
MDA-MB-435 = tested on: MDA-MB-435
NCI-H226 lung = tested on: NCI-H226 lung
PC-3 prostate = tested on: PC-3 prostate
SF-268 CNS = tested on: SF-268 CNS
SF-539 CNS = tested on: SF-539 CNS
SK-MEL-2 melanoma = tested on: SK-MEL-2 melanoma
SK-OV-3 ovarian = tested on: SK-OV-3 ovarian
SNB-19 CNS = tested on: SNB-19 CNS
UACC-257 melanoma = tested on: UACC-257 melanoma
UACC-62 melanoma = tested on: UACC-62 melanoma
UO-31 renal = tested on: UO-31 renal
M14 melanoma = tested on: M14 melanoma

Structure (SMILES)	TGI (786-0 renal) [µM]	TGI (CAKI-1 renal) [µM]	TGI (EKVX NSCLC) [µM]	TGI (HCT-116 colon) [µM]	TGI (HCT-15 colon) [µM]	TGI (HL-60(TB) leukemia) [µM]	TGI (HOP-62 NSCLC) [µM]	TGI (MDA-MB-435) [µM]	TGI (NCI-H226 lung) [µM]	TGI (PC-3 prostate) [µM]	TGI (SF-268 CNS) [µM]	TGI (SF-539 CNS) [µM]	TGI (SK-MEL-2 melanoma) [µM]	TGI (SK-OV-3 ovarian) [µM]	TGI (SNB-19 CNS) [µM]	TGI (UACC-257 melanoma) [µM]	TGI (UACC-62 melanoma) [µM]	TGI (UO-31 renal) [µM]	TGI (M14 melanoma) [µM]
C=C(C)[C@H]1CC(=O)[C@@]2(C)C[C@H]3O[C@]3(C)CC/C=C(\C)CC[C@H]12	> 100	73	> 100	85.4	> 100	75.2	> 100	> 100	> 100	86.2	> 100	> 100	> 100	> 100	> 100	55.8	74.1	> 100	
CC1CC(=O)Nc2ccccc2N1C(=O)C1CC1 (configuration not stated)	> 100	> 100	> 100	> 100	> 100	> 100	> 100	> 100	> 100	> 100	> 100	> 100	> 100	> 100	> 100	> 100		> 100	> 100
COc1ccc2nc3cc(Cl)ccc3c(NCCCCCC(=O)NC(COc3ccc4ccc5cccnc5c4n3)COc3ccc4ccc5cccnc5c4n3)c2c1	28.8	95.5	58	23.5	> 100	27.2	> 100	> 100	35.1	28.4	34.9	30.6	45.1	> 100	> 100	42.8	56.4	10.7	57.7
CN(Cc1cnc2nc(N)nc(N)c2n1)c1ccc(C(=O)NCCCC(=O)O)cc1	> 100	> 100	> 100	> 100	> 100	> 100	> 100	> 100	> 100	> 100	> 100	> 100	> 100	> 100	> 100	> 100	> 100	> 100	> 100
COc1ccc(C=O)cc1OS(=O)(=O)C(F)(F)C(F)(F)C(F)(F)C(F)(F)F	> 84.1	> 100	> 82.6	> 70.4	> 100	21.8	> 79.8	48.9	> 100	> 100	> 100	41	43.9	> 90.2	> 100	> 100	50.7	> 60.9	> 80.5
Cc1cc(=O)oc2c(C)c3oc(CBr)cc3cc12	32	31.8	> 100	39.4	44.3	> 100	33.6	37.7	34	35	51.5	50.7	54	75.4	> 100	52.5	33.9	30.3	34.8
CCOC(=O)c1cc([N+](=O)[O-])c(Sc2ncnc3nc[nH]c23)c([N+](=O)[O-])c1	7.98	12.7	15.4	3.94	6.57	23.4	24.8	14.7	17.3	27.9	17.8	13.4	24.6	5.04	32.4	20.6	11.9	7.08	15
COc1cc(OC)c(/C=N\Nc2nc3ccccc3c(=O)n2-c2ccccc2)c(OC)c1	37.6	38.3	63.7	40.6	> 100	> 100	47.7	> 72.7	44	53.7	> 100	39.3	64	77.6	78.6	> 76.5	55	> 81.4	84.6
Nc1ccc(C2SCC(=O)N2NS(=O)(=O)c2cccc(C(=O)O)c2)cc1 (configuration not stated)	> 100	> 100	> 100	> 100	> 100	> 100	> 100	> 100	> 100	> 100	> 100	> 100	> 100	> 100	> 100	> 100	> 100	> 100	> 100
C/C(=N\O)c1cccc(Nc2c3ccccc3nc3occc23)c1	28.3	9.3	50.6	18.8	> 100	> 100	17.5	5.73	54.8	> 100	56.9	21.1	25.2	36.8	> 100	> 100	49.1	> 100	> 100
C=CCOCn1cnc2c(=O)[nH]c(N)nc21	> 100	> 100	> 100	> 100	> 100	> 100	> 100	> 100	> 100	> 100	> 100	> 100	> 100	> 100	> 100		> 100	> 100	> 100
Cn1c(=S)[nH]c(N)c(Cc2ccccc2)c1=O	> 100	> 100	> 100	> 100	> 100	> 100	> 100	> 100	> 100	> 100	> 100	> 100	> 100	> 100	> 100	> 100	> 100		> 100
OC(Cc1cc(CC(O)(C(F)(F)F)C(F)(F)F)nc(CC(O)(C(F)(F)F)C(F)(F)F)c1)(C(F)(F)F)C(F)(F)F	6.34	2.31	9.32	2.76	3.95	> 10	3.63	7.94	7.58	0.776	4.87	3.44	4.31	> 10	8.79	5.26	1.6		8.25
